Consider 5 molecules from patent US4868321A, “Isothiocyanate intermediates” (FMC Corporation, priority 1988, dated 1989).

Holding throughout (type): in vivo
Test [1] has as its system Green Foxtail. Nature of the test: Postemergence Herbicidal Activity, Green Foxtail. The conditions noted are these: Setaria viridis, post-emergence; for pest or weed control at 8000 g/ha: 8.0 kg/ha. The text has this:
(§1) The herbicidal data in the following Tables 3 and 4 was obtained in the manner described in PCT published application no. […] In those tables, the test compounds are identified by numbers which correspond to those in Table 1, "kg/ha" is kilograms per hectare, and "% C" is percent control.

The subject of test [2] is Morningglory. Description: Preemergence Herbicidal Activity, Morningglory. The conditions noted are these: Ipomoea, pre-emergence; for pest or weed control at 8000 g/ha: 8.0 kg/ha. The text has this: (§2) The herbicidal data in the following Tables 3 and 4 was obtained in the manner described in PCT published application no. WO 85/01939, previously mentioned, usually employing solutions of the herbicidal compound in 50/50 acetone/water mixtures. In those tables, the test compounds are identified by numbers which correspond to those in Table 1, "kg/ha" is kilograms per hectare, and "% C" is percent control.

For test [3], the system named is Cotton. Description: Postemergence Herbicidal Activity, Cotton. The note with it: Gossypium hirsutum, post-emergence; for plant injury at 8000 g/ha: 8.0 kg/ha.
Source text: as §2

Test [4] relates to Green Foxtail. Nature of the test: Preemergence Herbicidal Activity, Green Foxtail. The note with it: Setaria viridis, pre-emergence; for pest or weed control at 8000 g/ha: 8.0 kg/ha.
Source text: as §1

Test [5] deals with Soybean. Nature of the test: Preemergence Herbicidal Activity, Soybean. The conditions noted are these: Glycine max, pre-emergence; for plant injury at 8000 g/ha: 8.0 kg/ha.
Source text: as §1

Test [6] deals with Barnyardgrass. Description: Preemergence Herbicidal Activity, Barnyardgrass. The conditions noted are these: Echinochloa crus-galli, pre-emergence; for pest or weed control at 8000 g/ha: 8.0 kg/ha.
Source text: as §1

Test [7] concerns Johnsongrass. Nature of the test: Postemergence Herbicidal Activity, Johnsongrass. The conditions noted are these: Sorghum halepense, post-emergence; for pest or weed control at 8000 g/ha: 8.0 kg/ha.
Source text: as §1

Test [8] deals with Soybean. Nature of the test: Postemergence Herbicidal Activity, Soybean. The note with it: Glycine max, post-emergence; for plant injury at 8000 g/ha: 8.0 kg/ha.
Source text: as §1

The test system of test [9] is Morningglory. Nature of the test: Postemergence Herbicidal Activity, Morningglory. The note with it: Ipomoea, post-emergence; for pest or weed control at 8000 g/ha: 8.0 kg/ha.
Source text: as §2

In test [10] the test system is Barnyardgrass. Nature of the test: Postemergence Herbicidal Activity, Barnyardgrass. The conditions noted are these: Echinochloa crus-galli, post-emergence; for pest or weed control at 8000 g/ha: 8.0 kg/ha.
Source text: as §1

Test [11] deals with Velvetleaf. Description: Postemergence Herbicidal Activity, Velvetleaf. The note with it: Abutilon theophrasti, post-emergence; for pest or weed control at 8000 g/ha: 8.0 kg/ha.
Source text: as §2

In test [12] the test system is Field Bindweed. Description: Preemergence Herbicidal Activity, Field Bindweed. The conditions noted are these: pre-emergence; for pest or weed control at 8000 g/ha: 8.0 kg/ha.
Source text: as §2

Test [13] has as its system Rice. Description: Postemergence Herbicidal Activity, Rice. The note with it: Oryza sativa, post-emergence.
Source text: as §1

Test [14] relates to Cotton. Nature of the test: Preemergence Herbicidal Activity, Cotton. The note with it: Gossypium hirsutum, pre-emergence; for plant injury at 8000 g/ha: 8.0 kg/ha.
Source text: as §2

For test [15], the system named is Field Bindweed. Description: Postemergence Herbicidal Activity, Field Bindweed. The note with it: post-emergence; for pest or weed control at 8000 g/ha: 8.0 kg/ha.
Source text: as §2

The subject of test [16] is Wheat. Nature of the test: Preemergence Herbicidal Activity, Wheat. The conditions noted are these: Triticum aestivum, pre-emergence; for plant injury at 8000 g/ha: 8.0 kg/ha.
Source text: as §1

Test [17] relates to Wheat. Nature of the test: Postemergence Herbicidal Activity, Wheat. The conditions noted are these: Triticum aestivum, post-emergence; for plant injury at 8000 g/ha: 8.0 kg/ha.
Source text: as §1

Test [18] relates to Rice. Nature of the test: Preemergence Herbicidal Activity, Rice. The note with it: Oryza sativa, pre-emergence.
Source text: as §1

For test [19], the system named is Field Corn. Nature of the test: Preemergence Herbicidal Activity, Field Corn. The conditions noted are these: Zea mays, pre-emergence; for plant injury at 8000 g/ha: 8.0 kg/ha.
Source text: as §1

Test [20] deals with Johnsongrass. Description: Preemergence Herbicidal Activity, Johnsongrass. The note with it: Sorghum halepense, pre-emergence; for pest or weed control at 8000 g/ha: 8.0 kg/ha.
Source text: as §1

The test system of test [21] is Velvetleaf. Description: Preemergence Herbicidal Activity, Velvetleaf. The note with it: Abutilon theophrasti, pre-emergence; for pest or weed control at 8000 g/ha: 8.0 kg/ha.
Source text: as §2

Test [22] concerns Field Corn. Nature of the test: Postemergence Herbicidal Activity, Field Corn. The note with it: Zea mays, post-emergence; for plant injury at 8000 g/ha: 8.0 kg/ha.
Source text: as §1

The structures appear in SMILES notation.

Usually pest or weed control stands for how far the test organism was held down. A high value points to strong suppression. The plant injury is the degree to which the test organism was suppressed or injured, in per cent. Low values mean weak suppression, high ones strong suppression. On to `O=c1n(CCCF)nnn1-c1cc(NS(=O)(=O)C(F)(F)F)c(Cl)cc1F` [Compound 30, 1-[4-Chloro-2-fluoro-5-(N-trifluoromethylsulfonylamino)phenyl]-1,4-dihydro-4-(3-fluoropropyl)-5H-tetrazol-5-one], for which the pest or weed control at 250 g/ha was determined as 0% in the test with Green Foxtail [1] (0.25 kg/ha); 60% in the test on Morningglory [2] (0.25 kg/ha); 10% in the test on Green Foxtail [4] (0.25 kg/ha); 0% in the test with Barnyardgrass [6] (0.25 kg/ha); 0% in the test with Johnsongrass [7] (0.25 kg/ha); 80% with Morningglory [9] (0.25 kg/ha). The pest or weed control at 250 g/ha was determined as 10% in the test on Barnyardgrass [10] (0.25 kg/ha); 100% in the test with Velvetleaf [11] (0.25 kg/ha); 95% with Field Bindweed [12] (0.25 kg/ha); 70% in the test on Field Bindweed [15] (0.25 kg/ha); 60% with Johnsongrass [20] (0.25 kg/ha); 100% in the test on Velvetleaf [21] (0.25 kg/ha). Moreover, the plant injury at 250 g/ha with Cotton [3] (0.25 kg/ha) came to 90%; with Soybean [5] (0.25 kg/ha), 10%; with Soybean [8] (0.25 kg/ha) it was 40%; in the test with Rice [13] (0.25 kg/ha), 10%; in the test on Cotton [14] (0.25 kg/ha) it was 50%; with Wheat [16] (0.25 kg/ha), 0%. The plant injury at 250 g/ha is 10% with Wheat [17] (0.25 kg/ha), 20% with Rice [18] (0.25 kg/ha), 10% in the test on Field Corn [19] (0.25 kg/ha) and 30% in the test with Field Corn [22] (0.25 kg/ha).

As to `CCS(=O)(=O)N(c1cc(-n2nnn(CCCF)c2=O)ccc1Cl)S(=O)(=O)CC` [Compound 18, 1-[4-chloro-3-[bis(N--ethylsulfonyl)-amino]phenyl]-1,4-dihydro-4-(3-fluoropropyl)-5H--tetrazol-5-one], the pest or weed control at 8000 g/ha with Green Foxtail [1] was 30%; with Morningglory [2], 40%; in the test with Green Foxtail [4], 10%; in the test on Barnyardgrass [6], 20%; in the test with Johnsongrass [7], 30%; in the test on Morningglory [9] it was 70%. Moreover, the pest or weed control at 8000 g/ha in the test on Barnyardgrass [10] was found to be 30%; in the test with Velvetleaf [11], 95%; with Field Bindweed [12], 30%; in the test on Field Bindweed [15], 50%; in the test with Johnsongrass [20], 40%; in the test on Velvetleaf [21], 95%. In addition, the plant injury at 8000 g/ha with Cotton [3] is 60%; with Soybean [5], 10%; in the test on Soybean [8] it was 60%; in the test with Cotton [14], 100%; in the test with Wheat [16], 0%; with Wheat [17] it was 10%. Besides, the plant injury at 8000 g/ha in the test with Field Corn [19] was determined as 0%; in the test with Field Corn [22], 30%.

As for `CS(=O)(=O)N(c1cc(-n2nnn(CCCF)c2=O)ccc1Cl)S(C)(=O)=O` [Compound 6], the pest or weed control at 8000 g/ha in the test on Green Foxtail [1] worked out at 50%; in the test with Morningglory [2] it was 60%; in the test with Green Foxtail [4], 30%; with Barnyardgrass [6], 30%; in the test on Johnsongrass [7], 20%; in the test with Morningglory [9], 100%. Also, the pest or weed control at 8000 g/ha was found to be 50% in the test on Barnyardgrass [10]; 100% with Velvetleaf [11]; 20% with Field Bindweed [12]; 70% in the test on Field Bindweed [15]; 20% in the test on Johnsongrass [20]; 95% with Velvetleaf [21]. Also, the plant injury at 8000 g/ha in the test on Cotton [3] was found to be 90%; with Soybean [5], 30%; in the test on Soybean [8], 50%; in the test on Rice [13] (8.0 kg/ha), 30%; in the test with Cotton [14], 70%; with Wheat [16], 0%. The plant injury at 8000 g/ha in the test on Wheat [17] amounted to 20%; with Field Corn [19], 20%; with Field Corn [22] it was 40%.

On to `CCS(=O)(=O)Nc1cc(-n2nnn(C)c2=O)c(F)cc1Cl` [Compound 43, 1-[4-Chloro-2-fluoro-5-(N--ethylsulfonylamino)phenyl]-4,5-dihydro-4-methyl-5H--tetrazol-5-one], for which the pest or weed control at 2000 g/ha is 40% in the test on Green Foxtail [1] (2.0 kg/ha); 70% in the test on Johnsongrass [7] (2.0 kg/ha); 100% with Morningglory [9] (2.0 kg/ha); 50% in the test with Barnyardgrass [10] (2.0 kg/ha); 95% with Velvetleaf [11] (2.0 kg/ha); 100% in the test on Field Bindweed [15] (2.0 kg/ha). The plant injury at 2000 g/ha came to 100% in the test on Cotton [3] (2.0 kg/ha); 50% with Soybean [8] (2.0 kg/ha); 50% in the test with Rice [13] (2.0 kg/ha); 50% with Wheat [17] (2.0 kg/ha); 30% in the test with Field Corn [22] (2.0 kg/ha).

Regarding `CCCS(=O)(=O)N(c1cc(-n2nnn(CCCF)c2=O)ccc1Cl)S(=O)(=O)CCC` [Compound 23], the pest or weed control at 8000 g/ha with Green Foxtail [1] came out at 40%; with Morningglory [2], 70%; in the test with Green Foxtail [4] it was 95%; with Barnyardgrass [6] it was 80%; in the test on Johnsongrass [7] it was 40%; in the test on Morningglory [9] it was 60%. Moreover, the pest or weed control at 8000 g/ha with Barnyardgrass [10] was determined as 40%; with Velvetleaf [11], 100%; in the test on Field Bindweed [12], 70%; in the test with Field Bindweed [15] it was 50%; in the test with Johnsongrass [20], 50%; with Velvetleaf [21], 100%. Besides, the plant injury at 8000 g/ha in the test with Cotton [3] was 60%; in the test with Soybean [5], 10%; in the test with Soybean [8] it was 40%; in the test with Cotton [14], 30%; in the test with Wheat [16], 40%; with Wheat [17], 20%. Further, the plant injury at 8000 g/ha with Rice [18] (8.0 kg/ha) worked out at 20%; with Field Corn [19], 90%; in the test with Field Corn [22] it was 30%.
